Data as given in US10874646B2, “Epothilone analogs, methods of synthesis, methods of treatment, and drug conjugates thereof” (WILLIAM MARSH RICE UNIVERSITY, priority 2015, dated 2020).
Where two headings read alike, the source gives them in different places.

What was measured:
MCF-7 = assay: Cytotoxicity, standard NCI assay with sulforhodamine B, 96 h; details: for IC50: read-out: Cytotoxicity (nM, ± SD) MCF-7; for GI50: read-out: cytotoxicity (GI50, nM ± SD) MCF-7
NCI/ADR-RES = assay: as above; format: cell-based, human; details: read-out: Cytotoxicity (nM, ± SD) NCI/ADR-RES
tubulin = assay: Induction/enhancement of tubulin assembly (Lin, et al., 1996); format: biochemical; details: 10 μM tubulin, 0.4M monosodium glutamate, 30 min at room temperature
OVCAR-8 = assay: Cytotoxicity, standard NCI assay with sulforhodamine B, 96 h; details: for IC50: read-out: Cytotoxicity (nM, ± SD) OVCAR-8; for GI50: read-out: cytotoxicity (GI50, nM ± SD) OVCAR-8
SNB-75 = assay: as above; format: cell-based, human; details: read-out: Cytotoxicity (nM, ± SD) SNB-75
MDA-MB-435 = assay: as above; format: cell-based, human; details: read-out: Cytotoxicity (nM, ± SD) MDA-MB-435
[1] = Homo sapiens, NCI/ADR-RES, 96 h
[2] = Table 3, read-out: Enhancement of tubulin assembly (EC50)
[3] = MCF-7, IC50, 96 h at 37° C., Table 3
[4] = NCI/ADR-RES (overexpresses P-glycoprotein), IC50, 96 h at 37° C., Table 3
[5] = SNB-75, IC50, 96 h at 37° C., Table 3
[6] = Table 2, read-out: induction of tubulin assembly (EC50, μM ± SD)
[7] = OVCAR-8, IC50, 96 h at 37° C., Table 3
[8] = OVCAR-8, 96 h at 37° C., Table 2
[9] = MDA-MB-435, IC50, 96 h at 37° C., Table 3

Row | SMILES | IC50 (MCF-7; Homo sapiens, MCF7, 96 h) | IC50 (NCI/ADR-RES; [1]) | EC50 (tubulin; [2]) | IC50 (OVCAR-8; Homo sapiens, OVCAR-8, 96 h) | IC50 (SNB-75; Homo sapiens, SNB-75, 96 h) | IC50 (MDA-MB-435; Homo sapiens, MDA-MB-435, 96 h) | EC50 (tubulin; [6]) | further results
1 | C/C(=C\c1csc(C)n1)[C@@H]1C[C@@H]2N[C@]2(C)CCC[C@H](C)[C@H](O)[C@@H](C)C(=O)C(C)(C)[C@@H](O)CC(=O)O1 [Compound 70] | 2 nM | 35 ± 7 nM | 19 µM | 1.5 ± 0.7 nM | – | – | – | –
2 | CSc1cc(/C=C(\C)[C@@H]2C[C@@H]3N(CCO)[C@]3(C)CCC[C@H](C)[C@H](O)[C@@H](C)C(=O)C(C)(C)[C@@H](O)CC(=O)O2)nn1C (stereo partly shown) [Compound 82] | 10 ± 1 nM | 7.5 ± 2 nM | 4.6 ± 0.9 µM | 78 ± 4 nM | 10 ± 2 nM | 12 ± 2 nM | – | –
3 | C/C(=C\c1csc(C)n1)[C@@H]1C[C@@H]2O[C@@H]2CCC[C@H](C)[C@H](O)[C@@H](C)C(=O)C(C)(C)[C@@H](O)CC(=O)O1 [EpoA, epothilone A] | – | – | 14 ± 3 µM | – | – | – | 16 ± 2 µM | IC50 (MCF-7; [3]): 14 ± 4 nM; GI50 (MCF-7; MCF-7, 96 h at 37° C., Table 2): 10 ± 2 nM; IC50 (NCI/ADR-RES; [4]): 35 ± 5 nM; IC50 (SNB-75; [5]): 14 ± 3 nM; IC50 (OVCAR-8; [7]): 20 ± 5 nM; GI50 (OVCAR-8; [8]): 11 ± 2 nM; IC50 (MDA-MB-435; [9]): 15 ± 2 nM
4 | C/C(=C\c1csc(N)n1)[C@@H]1C[C@@H]2N(CCO)[C@]2(C)CCC[C@H](C)[C@H](O)[C@@H](C)C(=O)C(C)(C)[C@@H](O)CC(=O)O1 (stereo partly shown) [Compound 83] | 330 ± 40 nM | 3800 nM | 13 ± 0.4 µM | 290 ± 10 nM | 280 ± 30 nM | 220 ± 30 nM | – | –
5 | CSc1nc(/C=C(\C)[C@@H]2C[C@@H]3N(CCO)[C@]3(C)CCC[C@H](C)[C@H](O)[C@@H](C)C(=O)C(C)(C)[C@@H](O)CC(=O)O2)cs1 (stereo partly shown) [Compound 78] | 28 ± 6 nM | 55 ± 7 nM | 14 ± 3 µM | 75 ± 10 nM | 60 ± 10 nM | 42 ± 5 nM | – | –
6 | C/C(=C\c1ccn(-c2ccc(N)cc2C(F)(F)F)n1)[C@@H]1C[C@@H]2O[C@]2(C)CCC[C@H](C)[C@H](O)[C@@H](C)C(=O)C(C)(C)[C@@H](O)CC(=O)O1 [Compound 13] | – | – | – | – | – | – | > 40 µM | GI50 (MCF-7; Homo sapiens, MCF7, 96 h): 9 ± 1 nM; GI50 (OVCAR-8; Homo sapiens, OVCAR-8, 96 h): 35 ± 5 nM
7 | C/C(=C\c1csc(CN)n1)[C@@H]1C[C@@H]2N(CCO)[C@]2(C)CCC[C@H](C)[C@H](O)[C@@H](C)C(=O)C(C)(C)[C@@H](O)CC(=O)O1 (stereo partly shown) [Compound 75] | 65 ± 7 nM | 2800 nM | > 60 µM | 93 ± 20 nM | 130 ± 20 nM | 20 ± 3 nM | – | –
8 | CSc1nc(/C=C(\C)[C@@H]2C[C@@H]3N(CCN)[C@]3(C)CCC[C@H](C)[C@H](O)[C@@H](C)C(=O)C(C)(C)[C@@H](O)CC(=O)O2)cs1 (stereo partly shown) [Compound 79] | 14 ± 2 nM | 70 ± 10 nM | 6.1 ± 0.1 µM | 63 ± 3 nM | 23 ± 6 nM | 15 ± 4 nM | – | –
9 | C/C(=C\c1ccccn1)[C@@H]1C[C@@H]2N(CCO)[C@]2(C)CCC[C@H](C)[C@H](O)[C@@H](C)C(=O)C(C)(C)[C@@H](O)CC(=O)O1 (stereo partly shown) [Compound 73] | 250 ± 40 nM | 4000 nM | > 60 µM | 170 ± 20 nM | 98 ± 10 nM | 30 ± 4 nM | – | –
10 | C/C(=C\c1csc(C)n1)[C@@H]1C[C@@H]2O[C@]2(C)CCC[C@H](C)[C@H](O)[C@@H](C)C(=O)C(C)(C)[C@@H](O)CC(=O)N1 [Ixab, ixabepilone, reference compound] | – | – | – | – | – | – | 4.5 ± 0.7 µM | GI50 (MCF-7; Homo sapiens, MCF7, 96 h): 7 ± 1 nM; GI50 (OVCAR-8; Homo sapiens, OVCAR-8, 96 h): 35 ± 10 nM
11 | C/C(=C\c1nc2ccccc2s1)[C@@H]1C[C@@H]2N(CCO)[C@]2(C)CCC[C@H](C)[C@H](O)[C@@H](C)C(=O)C(C)(C)[C@@H](O)CC(=O)O1 (stereo partly shown) [Compound 74] | 11 ± 1 nM | 630 ± 80 nM | 7.9 ± 1 µM | 23 ± 7 nM | 12 ± 3 nM | 3.5 ± 0.3 nM | – | –
12 | C/C(=C\c1csc(C)n1)[C@@H]1C[C@@H]2O[C@]2(C)CCC[C@H](C)[C@H](O)[C@@H](C)C(=O)C(C)(C)[C@@H](O)CC(=O)O1 [EpoB, epothilone B, reference compound] | – | – | […] | – | – | – | […] | IC50 (MCF-7; [3]): 9.2 ± 2 nM; GI50 (MCF-7; MCF-7, 96 h at 37° C., Table 2): 5.5 nM; IC50 (NCI/ADR-RES; [4]): 19 ± 4 nM; IC50 (SNB-75; [5]): 6.5 ± 2 nM; IC50 (OVCAR-8; [7]): 11 ± 3 nM; GI50 (OVCAR-8; [8]): 3.5 ± 0.7 nM; IC50 (MDA-MB-435; [9]): 5.3 ± 0.7 nM
13 | CC(=O)O[C@H]1C(=O)[C@@]2(C)[C@H]([C@H](OC(=O)c3ccccc3)[C@]3(O)C[C@H](OC(=O)[C@H](O)[C@@H](NC(=O)c4ccccc4)c4ccccc4)C(C)=C1C3(C)C)[C@]1(OC(C)=O)CO[C@@H]1C[C@@H]2O [PTX, paclitaxel, reference compound] | 7.8 ± 2 nM | – | 5 ± 1 µM | 10 ± 2 nM | – | – | – | GI50 (MCF-7; Homo sapiens, MCF7, 96 h): 8.5 nM; IC50 (NCI/ADR-RES; Homo sapiens, NCI/ADR-RES (overexpresses P-glycoprotein), IC50, 96 h at 37° C., Table 3): 4200 nM; IC50 (SNB-75; Homo sapiens, SNB-75, IC50, 96 h at 37° C., Table 3): 15 nM; GI50 (OVCAR-8; Homo sapiens, OVCAR-8, 96 h): 6.5 ± 2 nM; IC50 (MDA-MB-435; Homo sapiens, MDA-MB-435, IC50, 96 h at 37° C., Table 3): 4 ± 1 nM
14 | C/C(=C\c1csc(C)n1)[C@@H]1C/C=C\CCC[C@H](C)[C@H](O)[C@@H](C)C(=O)C(C)(C)[C@@H](O)CC(=O)O1 [EpoC, epothilone C, reference compound] | – | – | – | – | – | – | 18 µM | GI50 (MCF-7; MCF-7, 96 h at 37° C., Table 2): 70 nM; GI50 (OVCAR-8; [8]): 110 ± 7 nM
15 | C/C1=C/C[C@@H](/C(C)=C/c2csc(C)n2)OC(=O)C[C@H](O)C(C)(C)C(=O)[C@H](C)[C@@H](O)[C@@H](C)CCC1 [EpoD, epothilone D, reference compound] | – | – | – | – | – | – | 18 µM | GI50 (MCF-7; MCF-7, 96 h at 37° C., Table 2): 14 ± 1 nM; GI50 (OVCAR-8; [8]): 13 ± 4 nM
16 | CSc1nc(/C=C(\C)[C@@H]2C[C@@H]3N(CC4CC4)[C@]3(C)CCC[C@H](C)[C@H](O)[C@@H](C)C(=O)C(C)(C)[C@@H](O)CC(=O)O2)cs1 (stereo partly shown) [Compound 81] | 18 ± 3 nM | 18 ± 4 nM | 5.1 ± 0.4 µM | 15 ± 2 nM | 16 ± 3 nM | 9.5 ± 2 nM | – | –
17 | C/C(=C\c1csc(CCN)n1)[C@@H]1C[C@@H]2N(CCO)[C@]2(C)CCC[C@H](C)[C@H](O)[C@@H](C)C(=O)C(C)(C)[C@@H](O)CC(=O)O1 (stereo partly shown) [Compound 76] | 15 ± 3 nM | 45 ± 6 nM | 9.1 ± 1 µM | 8.6 ± 1 nM | 50 ± 10 nM | 3.8 ± 0.7 nM | – | –
18 | CSc1nc(/C=C(\C)[C@@H]2C[C@@H]3N[C@]3(C)CCC[C@H](C)[C@H](O)[C@@H](C)C(=O)C(C)(C)[C@@H](O)CC(=O)O2)cs1 [Compound 77] | 4 ± 1 nM | 8.8 ± 1 nM | 5 ± 1 µM | 16 ± 4 nM | 11 ± 3 nM | 4.5 ± 0.5 nM | – | –
19 | CSc1nc(/C=C(\C)[C@@H]2C[C@@H]3N(CCN=[N+]=[N-])[C@]3(C)CCC[C@H](C)[C@H](O)[C@@H](C)C(=O)C(C)(C)[C@@H](O)CC(=O)O2)cs1 (stereo partly shown) [Compound 80] | 13 ± 3 nM | 3.2 ± 0.8 nM | 5.4 ± 0.6 µM | 15 nM | 22 ± 3 nM | 7.3 ± 2 nM | – | –
20 | C/C(=C\c1csc(C)n1)[C@@H]1C[C@@H]2N(CCO)[C@]2(C)CCC[C@H](C)[C@H](O)[C@@H](C)C(=O)C(C)(C)[C@@H](O)CC(=O)O1 (stereo partly shown) [Compound 71] | 3 ± 1 nM | 55 ± 20 nM | 18.2 µM | 4.5 ± 0.7 nM | – | – | – | –
